# Read-outs that look alike come from different tables or passages of the source.
# Legend:
# Format in all cases: cell-based
# hMC3-R = molecular target: T1, hMC3-R (Homo sapiens, UniProt P41968); test: cyclic AMP bioassay, hMC3-R
# T1 construct: expressed in transfected cells; host or cells: CHO-K1
# hMC4-R = molecular target: T2, hMC4-R (Homo sapiens, UniProt P32245); test: cyclic AMP bioassay, hMC4-R
# T2 construct: expressed in transfected cells; host or cells: CHO-K1
# Procedure: Intracellular cyclic AMP (cAMP) levels were determined by an electrochemiluminescence (ECL) assay (Meso Scale Discovery®, Gaithersburg, Md.; referred to hereinafter as MSD). […] Transgenic CHO-K1 cells stably expressing hMC receptor subtypes 1, 3, 4 or 5 were dispensed at a density of approximately 7,000 cells/well in 384-well Multi-Arrays plates (MSD) containing integrated carbon electrodes and coated with anti-CAMP antibody. Increasing concentrations of the test compounds were added and the cells were incubated for approximately 40 minutes at approximately 37° C. […] At the end of the second incubation period read buffer (Tris-buffered solution containing an ECL co-reactant and Triton X-100 at ph 7.8) was added and the cAMP levels in the cell lysates were immediately determined by ECL detection with a Sector Imager 6000 Reader® (MSD). Data were analyzed using a computer-assisted non-linear regression analysis (XL fit; IDBS) and reported as either an EC50 value or a Kb value.
# The Kb value reflects the potency of an antagonist and is determined by Schild analysis. In brief, concentration-response curves of an agonist are carried out in the presence of increasing concentrations of an antagonist. […] It is calculated by extrapolating the line on a Schild plot to zero on the y-axis.
# hMC1-R = molecular target: T3, hMC1-R (Homo sapiens, UniProt Q01726); test: cyclic AMP bioassay, hMC1-R
# T3 construct: expressed in transfected cells; host or cells: CHO-K1
# hMC5-R = molecular target: T4, hMC5-R (Homo sapiens, UniProt P33032); test: cyclic AMP bioassay, hMC5-R
# T4 construct: expressed in transfected cells; host or cells: CHO-K1
# [1] = Table 3A, cAMP in CHO-K1 cells, antagonist potency by Schild analysis, read-out: Kb hMC3-R
# [2] = Table 3A, cAMP in CHO-K1 cells, antagonist potency by Schild analysis, read-out: Kb hMC4-R
# T1 sequence (P41968 whole entry): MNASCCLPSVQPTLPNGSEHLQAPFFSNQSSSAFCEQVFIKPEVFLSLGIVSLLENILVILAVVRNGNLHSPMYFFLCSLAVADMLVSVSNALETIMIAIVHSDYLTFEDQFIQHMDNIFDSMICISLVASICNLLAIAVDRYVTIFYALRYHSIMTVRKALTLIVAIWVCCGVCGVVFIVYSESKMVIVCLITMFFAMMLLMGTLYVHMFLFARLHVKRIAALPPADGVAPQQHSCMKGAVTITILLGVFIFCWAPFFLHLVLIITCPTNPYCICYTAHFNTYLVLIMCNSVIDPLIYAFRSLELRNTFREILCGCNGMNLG
# T2 sequence (P32245 whole entry): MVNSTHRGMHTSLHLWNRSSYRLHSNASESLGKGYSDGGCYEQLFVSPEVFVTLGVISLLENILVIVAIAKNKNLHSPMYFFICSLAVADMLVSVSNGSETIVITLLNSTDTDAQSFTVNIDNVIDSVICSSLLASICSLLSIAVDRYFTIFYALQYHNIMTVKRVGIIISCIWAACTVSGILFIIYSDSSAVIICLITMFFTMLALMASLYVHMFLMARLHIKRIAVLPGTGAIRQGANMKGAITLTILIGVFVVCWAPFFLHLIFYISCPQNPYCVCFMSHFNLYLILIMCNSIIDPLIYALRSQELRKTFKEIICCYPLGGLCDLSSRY
# T4 sequence (P33032 whole entry): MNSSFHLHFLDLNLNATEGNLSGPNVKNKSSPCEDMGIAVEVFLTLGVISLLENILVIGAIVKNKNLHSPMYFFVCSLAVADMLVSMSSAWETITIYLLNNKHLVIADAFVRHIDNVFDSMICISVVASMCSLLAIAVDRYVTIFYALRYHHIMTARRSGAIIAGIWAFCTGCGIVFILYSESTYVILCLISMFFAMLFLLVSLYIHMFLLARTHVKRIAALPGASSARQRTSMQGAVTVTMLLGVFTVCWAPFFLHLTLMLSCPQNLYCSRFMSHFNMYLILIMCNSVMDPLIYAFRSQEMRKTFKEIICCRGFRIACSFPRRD
# T3 sequence (Q01726 whole entry): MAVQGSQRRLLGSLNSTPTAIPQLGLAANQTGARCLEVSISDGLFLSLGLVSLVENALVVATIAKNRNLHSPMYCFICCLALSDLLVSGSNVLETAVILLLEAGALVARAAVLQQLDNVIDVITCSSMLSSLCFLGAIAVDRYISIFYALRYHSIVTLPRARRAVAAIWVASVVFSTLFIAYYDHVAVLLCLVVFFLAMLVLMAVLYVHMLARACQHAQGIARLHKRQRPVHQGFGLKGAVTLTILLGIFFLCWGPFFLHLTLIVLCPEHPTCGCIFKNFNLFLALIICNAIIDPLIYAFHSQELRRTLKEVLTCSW
smiles,measurement,setting,value
CCCC[C@H](NC(C)=O)C(=O)N[C@H]1CC(=O)NCCCC[C@@H](C(=O)N2CCC[C@H]2C(=O)N2CCC[C@H]2C(=O)N[C@@H](CCCCN)C(=O)N[C@@H](CC(=O)O)C(=O)N[C@@H](Cc2ccc(O)cc2)C(=O)NCC(=O)N[C@@H](CCCNC(=N)N)C(=O)N[C@@H](CCCCN)C(=O)N[C@@H](CCCCN)C(=O)N[C@@H](CCCNC(=N)N)C(=O)N[C@@H](CCCNC(=N)N)C(=O)N[C@@H](CCC(N)=O)C(=O)N[C@@H](CCCNC(=N)N)C(=O)N[C@@H](CCCNC(=N)N)C(=O)N[C@@H](CCCNC(=N)N)C(N)=O)NC(=O)[C@H](Cc2c[nH]c3ccccc23)NC(=O)[C@H](CCCNC(=N)N)NC(=O)[C@@H](Cc2ccc3ccccc3c2)NC(=O)[C@H](Cc2c[nH]cn2)NC1=O,Kb,hMC3-R; [1],14.1 nM
same,Kb,hMC4-R; [2],22.8 nM
CCCC[C@H](NC(C)=O)C(=O)N[C@H]1CC(=O)NCCCC[C@@H](C(=O)NCCC(=O)N[C@@H](Cc2ccc(O)cc2)C(=O)NCC(=O)N[C@@H](CCCNC(=N)N)C(=O)N[C@@H](CCCCN)C(=O)N[C@@H](CCCCN)C(=O)N[C@@H](CCCNC(=N)N)C(=O)N[C@@H](CCCNC(=N)N)C(=O)N[C@@H](CCC(N)=O)C(=O)N[C@@H](CCCNC(=N)N)C(=O)N[C@@H](CCCNC(=N)N)C(=O)N[C@@H](CCCNC(=N)N)C(N)=O)NC(=O)[C@H](Cc2c[nH]c3ccccc23)NC(=O)[C@H](CCCNC(=N)N)NC(=O)[C@@H](Cc2ccc3ccccc3c2)NC(=O)[C@H](Cc2c[nH]cn2)NC1=O,Kb,hMC3-R; [1],220 nM
same,Kb,hMC4-R; [2],4.07 nM
CCCC[C@H](NC(C)=O)C(=O)N[C@H]1CSSC[C@@H](C(=O)NCCC(=O)N[C@@H](Cc2ccc(O)cc2)C(=O)NCC(=O)N[C@@H](CCCNC(=N)N)C(=O)N[C@@H](CCCNC(=N)N)C(=O)N[C@@H](CCCNC(=N)N)C(=O)N[C@@H](CCCNC(=N)N)C(=O)N[C@@H](CCCNC(=N)N)C(=O)N[C@@H](CCC(N)=O)C(=O)N[C@@H](CCCNC(=N)N)C(=O)N[C@@H](CCCNC(=N)N)C(=O)N[C@@H](CCCNC(=N)N)C(N)=O)NC(=O)[C@H](Cc2c[nH]c3ccccc23)NC(=O)[C@H](CCCNC(=N)N)NC(=O)[C@@H](Cc2ccccc2)NC(=O)[C@H](Cc2c[nH]cn2)NC(=O)[C@@H](C)NC1=O,EC50,hMC1-R,7.86 nM
same,Kb,hMC3-R,10.5 nM
same,Kb,hMC4-R,0.843 nM
same,EC50,hMC5-R,4900 nM
CC(=O)N[C@H]1CSSC[C@@H](C(=O)N2CCC[C@H]2C(=O)N2CCC[C@H]2C(=O)N[C@@H](CCCCN)C(=O)N[C@@H](CC(=O)O)C(=O)NCCC(=O)N[C@@H](Cc2ccc(O)cc2)C(=O)NCC(=O)N[C@@H](CCCNC(=N)N)C(=O)N[C@@H](CCCCN)C(=O)N[C@@H](CCCCN)C(=O)N[C@@H](CCCNC(=N)N)C(=O)N[C@@H](CCCNC(=N)N)C(=O)N[C@@H](CCC(N)=O)C(=O)N[C@@H](CCCNC(=N)N)C(=O)N[C@@H](CCCNC(=N)N)C(=O)N[C@@H](CCCNC(=N)N)C(N)=O)NC(=O)[C@H](C)NC(=O)[C@H](Cc2ccc3ccccc3c2)NC(=O)[C@H](CCCNC(=N)N)NC(=O)[C@@H](Cc2ccc3ccccc3c2)NC(=O)[C@H](Cc2c[nH]cn2)NC(=O)[C@H](CCC(=O)O)NC1=O,EC50,hMC1-R,29.7 nM
same,Kb,hMC3-R,25.6 nM
same,Kb,hMC4-R,7.37 nM
same,EC50,hMC5-R,82.9 nM
CC(=O)N[C@H]1CSSC[C@@H](C(=O)N2CCC[C@H]2C(=O)N2CCC[C@H]2C(=O)N[C@@H](CCCCN)C(=O)N[C@@H](CC(=O)O)C(=O)NCCC(=O)NCC(=O)N[C@@H](CCCNC(=N)N)C(=O)N[C@@H](CCCNC(=N)N)C(=O)N[C@@H](CCCCN)C(=O)N[C@@H](CCCNC(=N)N)C(=O)N[C@@H](CCCNC(=N)N)C(=O)N[C@@H](CCC(N)=O)C(=O)N[C@@H](CCCNC(=N)N)C(=O)N[C@@H](CCCNC(=N)N)C(=O)N[C@@H](CCCNC(=N)N)C(N)=O)NC(=O)[C@H](C)NC(=O)[C@H](Cc2ccc3ccccc3c2)NC(=O)[C@H](CCCNC(=N)N)NC(=O)[C@@H](Cc2ccc3ccccc3c2)NC(=O)[C@H](Cc2c[nH]cn2)NC(=O)[C@H](CCC(=O)O)NC1=O,EC50,hMC1-R,45.4 nM
same,Kb,hMC3-R,12.7 nM
same,Kb,hMC4-R,12.7 nM
same,EC50,hMC5-R,162 nM
CC(=O)N[C@H]1CSSC[C@@H](C(=O)N2CCC[C@H]2C(=O)N2CCC[C@H]2C(=O)N[C@@H](CCCCN)C(=O)N[C@@H](CC(=O)O)C(=O)NCCOCCOCC(=O)N[C@@H](Cc2ccc(O)cc2)C(=O)NCC(=O)N[C@@H](CCCNC(=N)N)C(=O)N[C@@H](CCCCN)C(=O)N[C@@H](CCCCN)C(=O)N[C@@H](CCCNC(=N)N)C(=O)N[C@@H](CCCNC(=N)N)C(=O)N[C@@H](CCC(N)=O)C(=O)N[C@@H](CCCNC(=N)N)C(=O)N[C@@H](CCCNC(=N)N)C(=O)N[C@@H](CCCNC(=N)N)C(N)=O)NC(=O)CNC(=O)[C@H](Cc2c[nH]c3ccccc23)NC(=O)[C@H](CCCNC(=N)N)NC(=O)[C@@H](Cc2ccc3ccccc3c2)NC(=O)[C@H](Cc2c[nH]cn2)NC(=O)[C@H](CCC(=O)O)NC1=O,Kb,hMC3-R; [1],17.7 nM
same,Kb,hMC4-R; [2],1.49 nM
CC(=O)N[C@H]1CSSC[C@@H](C(=O)N2CCC[C@H]2C(=O)N2CCC[C@H]2C(=O)N[C@@H](CCCCN)C(=O)N[C@@H](CC(=O)O)C(=O)N[C@@H](Cc2ccc(O)cc2)C(=O)NCC(=O)N[C@@H](CCCNC(=N)N)C(=O)N[C@@H](CCCCN)C(=O)N[C@@H](CCCCN)C(=O)N[C@@H](CCCNC(=N)N)C(=O)N[C@@H](CCCNC(=N)N)C(=O)N[C@@H](CCC(N)=O)C(=O)N[C@@H](CCCNC(=N)N)C(=O)N[C@@H](CCCNC(=N)N)C(=O)N[C@@H](CCCNC(=N)N)C(N)=O)NC(=O)CNC(=O)[C@H](Cc2c[nH]c3ccccc23)NC(=O)[C@H](CCCNC(=N)N)NC(=O)[C@@H](Cc2ccc3ccccc3c2)NC(=O)[C@H](Cc2c[nH]cn2)NC(=O)[C@H](CCC(=O)O)NC1=O,Kb,hMC3-R; [1],233 nM
same,Kb,hMC4-R; [2],26 nM
CCCC[C@H](N)C(=O)N[C@H]1CC(=O)NCCCC[C@@H](C(=O)NCCC(=O)N[C@@H](Cc2ccc(O)cc2)C(=O)NCC(=O)N[C@@H](CCCNC(=N)N)C(=O)N[C@@H](CCCCN)C(=O)N[C@@H](CCCCN)C(=O)N[C@@H](CCCNC(=N)N)C(=O)N[C@@H](CCCNC(=N)N)C(=O)N[C@@H](CCC(N)=O)C(=O)N[C@@H](CCCNC(=N)N)C(=O)N[C@@H](CCCNC(=N)N)C(=O)N[C@@H](CCCNC(=N)N)C(N)=O)NC(=O)[C@H](Cc2c[nH]c3ccccc23)NC(=O)[C@H](CCCNC(=N)N)NC(=O)[C@@H](Cc2ccc3ccccc3c2)NC(=O)[C@H](Cc2c[nH]cn2)NC1=O,Kb,hMC3-R; [1],207 nM
same,Kb,hMC4-R; [2],18.5 nM
CCCC[C@H](NC(=O)COCCOCCNC(=O)[C@H](CCCNC(=N)N)NC(=O)[C@H](CCCNC(=N)N)NC(=O)[C@H](CCCNC(=N)N)NC(=O)[C@H](CCC(N)=O)NC(=O)[C@H](CCCNC(=N)N)NC(=O)[C@H](CCCNC(=N)N)NC(=O)[C@H](CCCCN)NC(=O)[C@H](CCCCN)NC(=O)[C@H](CCCNC(=N)N)NC(=O)CNC(=O)[C@@H](N)Cc1ccc(O)cc1)C(=O)N[C@H]1CC(=O)NCCCC[C@@H](C(N)=O)NC(=O)[C@H](Cc2c[nH]c3ccccc23)NC(=O)[C@H](CCCNC(=N)N)NC(=O)[C@@H](Cc2ccc3ccccc3c2)NC(=O)[C@H](Cc2c[nH]cn2)NC1=O,Kb,hMC3-R; [1],395 nM
same,Kb,hMC4-R; [2],16.8 nM
CCCC[C@H](NC(=O)[C@H](CCCNC(=N)N)NC(=O)[C@H](CCCNC(=N)N)NC(=O)[C@H](CCCNC(=N)N)NC(=O)[C@H](CCC(N)=O)NC(=O)[C@H](CCCNC(=N)N)NC(=O)[C@H](CCCNC(=N)N)NC(=O)[C@H](CCCCN)NC(=O)[C@H](CCCCN)NC(=O)[C@H](CCCNC(=N)N)NC(=O)CNC(=O)[C@@H](N)Cc1ccc(O)cc1)C(=O)N[C@H]1CC(=O)NCCCC[C@@H](C(N)=O)NC(=O)[C@H](Cc2c[nH]c3ccccc23)NC(=O)[C@H](CCCNC(=N)N)NC(=O)[C@@H](Cc2ccc3ccccc3c2)NC(=O)[C@H](Cc2c[nH]cn2)NC1=O,Kb,hMC3-R; [1],4500 nM
same,Kb,hMC4-R; [2],105 nM

# From patent US20090232838A1, “Ligands of melanocortin receptors” (priority 2005, published 2009)
